Key:
[1] = tested on: mice treated with 1-Methyl-4-Phenyl-1,2,3,6-Tetrahydropyridine (MPTP); details: cited from earlier work
EPM in rats = details: cited from earlier work
EPM in mice = details: preclinical model of anxiety; cited from earlier work
[2] = tested on: marble burying test in mice; details: preclinical model of anxiety; cited from earlier work
human mGlu4 receptor = human mGlu4 receptor (Homo sapiens (Human), UniProt Q14833); assay: Ca2+ mobilization in vitro assay on recombinant human mGlu4 expressed in HEK293 cells (mGlu4 PAM); type: cell-based; details: for EC50: HEK293 cells stably expressing human mGlu4, L-AP4 added at EC20, read-out: EC50 (nM) mGlu4PAM; for Eff. (%): maximal response in % of the maximal stimulatory effect obtained with saturating concentrations of L-AP4
human mGlu4 receptor, sequence (Q14833 33-912): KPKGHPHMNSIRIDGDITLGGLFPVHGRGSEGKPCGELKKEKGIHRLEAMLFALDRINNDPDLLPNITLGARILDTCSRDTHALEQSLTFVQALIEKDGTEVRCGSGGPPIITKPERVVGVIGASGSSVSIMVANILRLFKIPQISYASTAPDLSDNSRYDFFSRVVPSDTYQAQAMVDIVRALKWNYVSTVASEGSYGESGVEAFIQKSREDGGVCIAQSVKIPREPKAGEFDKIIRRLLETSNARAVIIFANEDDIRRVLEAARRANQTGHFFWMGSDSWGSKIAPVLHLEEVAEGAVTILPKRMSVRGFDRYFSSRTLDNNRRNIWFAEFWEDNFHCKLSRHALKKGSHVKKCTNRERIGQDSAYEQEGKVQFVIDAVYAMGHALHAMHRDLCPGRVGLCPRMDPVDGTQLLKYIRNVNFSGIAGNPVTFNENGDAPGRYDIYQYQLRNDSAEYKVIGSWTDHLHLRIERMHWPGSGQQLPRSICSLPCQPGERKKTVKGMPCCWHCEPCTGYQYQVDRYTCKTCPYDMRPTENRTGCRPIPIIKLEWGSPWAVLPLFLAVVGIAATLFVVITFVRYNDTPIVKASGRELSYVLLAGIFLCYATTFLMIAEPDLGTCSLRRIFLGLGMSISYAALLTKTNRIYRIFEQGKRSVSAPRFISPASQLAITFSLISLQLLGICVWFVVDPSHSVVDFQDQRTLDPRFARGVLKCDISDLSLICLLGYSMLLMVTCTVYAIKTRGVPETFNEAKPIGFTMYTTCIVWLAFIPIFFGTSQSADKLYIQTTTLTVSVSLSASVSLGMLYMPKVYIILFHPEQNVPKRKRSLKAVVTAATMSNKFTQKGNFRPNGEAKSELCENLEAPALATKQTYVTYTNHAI
Description: Determination of EC50 Values Using a Ca2+ Mobilization In Vitro Assay on Recombinant Human mGlu4 Expressed in HEK293 Cells:
A monoclonal HEK-293 cell line stably transfected with a cDNA encoding for the human mGlu4 receptor was generated; for the work with mGlu4 Positive Allosteric Modulators (PAMs), a cell line with low receptor expression levels and low constitutive receptor activity was selected to allow the differentiation of agonistic versus PAM activity. Cells were cultured according to standard protocols (Freshney, 2000) in Dulbecco's Modified Eagle Medium with high glucose supplemented with 1 mM glutamine, 10% (vol/vol) heat-inactivated bovine calf serum, Penicillin/Streptomycin, 50 μg/ml hygromycin and 15 μg/ml blasticidin (all cell culture reagents and antibiotics from Invitrogen, Basel, Switzerland).
About 24 hrs before an experiment, 5×10^4 cells/well were seeded in poly-D-lysine coated, black/clear-bottomed 96-well plates. The cells were loaded with 2.5 μM Fluo-4AM in loading buffer (1×HBSS, 20 mM HEPES) for 1 hr at 37° C. and washed five times with loading buffer. The cells were transferred into a Functional Drug Screening System 7000 (Hamamatsu, Paris, France), and 11 half logarithmic serial dilutions of test compound at 37° C. were added and the cells were incubated for 10-30 min. with on-line recording of fluorescence. Following this pre-incubation step, the agonist (2S)-2-amino-4-phosphonobutanoic acid (L-AP4) was added to the cells at a concentration corresponding to EC20 with on-line recording of fluorescence; in order to account for day-to-day variations in the responsiveness of cells, the EC20 of L-AP4 was determined immediately ahead of each experiment by recording of a full dose-response curve of L-AP4.
Responses were measured as peak increase in fluorescence minus basal (i.e. fluorescence without addition of L-AP4), normalized to the maximal stimulatory effect obtained with saturating concentrations of L-AP4. Graphs were plotted with the % maximal stimulatory using XLfit, a curve fitting program that iteratively plots the data using Levenburg Marquardt algorithm. The single site competition analysis equation used was y=A+((B−A)/(1+((x/C)D))), where y is the % maximal stimulatory effect, A is the minimum y, B is the maximum y, C is the EC50, x is the log 10 of the concentration of the competing compound and D is the slope of the curve (the Hill Coefficient). From these curves the EC50 (drug concentration at which 50% of the maximal receptor activation was achieved), the Hill coefficient as well as the maximal response in % of the maximal stimulatory effect obtained with saturating concentrations of L-AP4 were calculated (see FIG. 1).
A depression of the signal observed after addition of the EC20 concentration of L-AP4 was indicative of an inhibitory activity of the test compound. • FIG. 1: Illustration of the experimental outline for mGlu4 PAM Ca2+ mobilization screening assay and the determination of EC50 and % Emax values.

[3] = tested on: 6-OHDA rodent model of PD; details: cited from earlier work

| Compound | EC50 (human mGlu4 receptor) [nM] | Eff. (%) (human mGlu4 receptor) | also measured |
| --- | --- | --- | --- |
| O=C(Nc1ccccc1)C12CC1/C(=N\O)c1ccccc1O2 (single isomer, unassigned; (-)) [(−)-PHCCC] |  |  | nigrostriatal degeneration [1]: reduced nigrostriatal degeneration |
| Cc1ccnc(Nc2nc(-c3cn[nH]c3)c(C)s2)n1 [ADX88178] |  |  | profile in rat EPM test (EPM in rats; rat, after oral dosing): anxiolytic-like profile; activity in EPM (EPM in rats; rats, preclinical model of anxiety): active; activity in EPM (EPM in mice): active; activity in marble burying test [2]: active |
| CC(C)n1c(=O)n(-c2ncc(C#Cc3cccnc3)cc2Cl)c(=O)c2nn(C)cc21 [Example 59, 6-[3-Chloro-5-[2-(3-pyridyl)ethynyl]-2-pyridyl]-4-isopropyl-2-methyl-pyrazolo[4,3-d]pyrimidine-5,7-dione] | 169 | 146 |  |
| CC(C)n1c(=O)n(-c2ncc(C#Cc3ccccc3)cc2Cl)c(=O)c2nn(C)cc21 [Example 60, 6-[3-Chloro-5-(2-phenylethynyl)-2-pyridyl]-4-isopropyl-2-methyl-pyrazolo[4,3-d]pyrimidine-5,7-dione] | 189 | 150 |  |
| Cn1c(=O)n(-c2c(F)cc(C#Cc3ccccc3)cc2F)c(=O)c2nccc(Cl)c21 [Example 61, 8-Chloro-3-[2,6-difluoro-4-(2-phenylethynyl)phenyl]-1-methyl-pyrido[3,2-d]pyrimidine-2,4-dione] | 91 | 129 |  |
| Cn1cc2c(=O)n(-c3c(F)cc(C#Cc4ccccc4)cc3F)c(=O)n(C)c2n1 [Example 62, 5-[2,6-Difluoro-4-(2-phenylethynyl)phenyl]-2,7-dimethyl-pyrazolo[3,4-d]pyrimidine-4,6-dione] | 137 | 145 |  |
| Cn1ncc2c(=O)n(-c3c(F)cc(C#Cc4ccccc4)cc3F)c(=O)n(C)c21 [Example 63, 5-[2,6-Difluoro-4-(2-phenylethynyl)phenyl]-1,7-dimethyl-pyrazolo[3,4-d]pyrimidine-4,6-dione] | 26 | 146 |  |
| CC(C)n1c(=O)n(-c2c(F)cc(C#Cc3ccccc3)cc2F)c(=O)c2c[nH]nc21 [Example 64, 5-[2,6-Difluoro-4-(2-phenylethynyl)phenyl]-7-isopropyl-2H-pyrazolo[3,4-d]pyrimidine-4,6-dione] | 121 | 120 |  |
| COc1cccc2c(=O)n(-c3ccc(C#Cc4ccccc4)cc3Cl)c(=O)n(C)c12 [Example 65, 3-[2-Chloro-4-(2-phenylethynyl)phenyl]-8-methoxy-1-methyl-quinazoline-2,4-dione] | 32 | 97 |  |
| O=c1c2ccccc2n(C2COC2)c(=O)n1-c1c(F)cc(C#Cc2ccccc2)cc1F [Example 66, 3-[2,6-Difluoro-4-(2-phenylethynyl)phenyl]-1-(oxetan-3-yl)quinazoline-2,4-dione] | 75 | 184 |  |
| Cn1c(=O)n(-c2ccc(C#Cc3ccccc3)cc2Cl)c(=O)c2ncsc21 [Example 67, 6-[2-Chloro-4-(2-phenylethynyl)phenyl]-4-methyl-thiazolo[5,4-d]pyrimidine-5,7-dione] | 246 | 188 |  |
| CC(C)n1c(=O)n(-c2c(F)cc(C#Cc3ccccc3)cc2F)c(=O)c2nccnc21 [Example 68, 3-[2,6-Difluoro-4-(2-phenylethynyl)phenyl]-1-isopropyl-pteridine-2,4-dione] | 48 | 225 |  |
| Cn1cnc2c1c(=O)n(-c1c(F)cc(C#Cc3ccccc3)cc1F)c(=O)n2C [Example 69, 1-[2,6-Difluoro-4-(2-phenylethynyl)phenyl]-3,7-dimethyl-purine-2,6-dione] | 50 | 113 |  |
| COc1cccc2c(=O)n(-c3c(F)cc(C#Cc4ccccc4)cc3F)c(=O)n(C)c12 [Example 70, 3-[2,6-Difluoro-4-(2-phenylethynyl)phenyl]-8-methoxy-1-methyl-quinazoline-2,4-dione] | 38 | 152 |  |
| O=c1c2ccccc2n(C2COC2)c(=O)n1-c1c(F)cc(C#Cc2cccnc2)cc1Cl [Example 71, 3-[2-Chloro-6-fluoro-4-[2-(3-pyridyl)ethynyl]phenyl]-1-(oxetan-3-yl)quinazoline-2,4-dione] | 86 | 103 |  |
| CC(C)n1c(=O)n(-c2c(F)cc(C#Cc3ccccc3)cc2C(F)(F)F)c(=O)c2ccccc21 [Example 72, 3-[2-Fluoro-4-(2-phenylethynyl)-6-(trifluoromethyl)phenyl]-1-isopropyl-quinazoline-2,4-dione] | 63 | 134 |  |
| Cc1cccc2c(=O)n(-c3c(F)cc(C#Cc4cccnc4)cc3F)c(=O)n(C)c12 [Example 73, 3-[2,6-Difluoro-4-[2-(3-pyridyl)ethynyl]phenyl]-1,8-dimethyl-quinazoline-2,4-dione] | 154 | 197 |  |
| Cn1c(=O)n(-c2c(F)cc(C#Cc3ccccc3)cc2F)c(=O)c2cccc(OCC(F)F)c21 [Example 74, 8-(2,2-Difluoroethoxy)-3-[2,6-difluoro-4-(2-phenylethynyl)phenyl]-1-methyl-quinazoline-2,4-dione] | 60 | 122 |  |
| N[C@@H](CCP(=O)(O)O)C(=O)O [L-AP4, (2S)-2-amino-4-phosphonobutanoic acid] |  |  | neuroprotection [3]: neuroprotective effects |

Reference: US9676732B2, “Ethynyl derivatives” (Hoffmann-La Roche Inc., priority 2013, dated 2017)
